One data set deals with CDK1, 2, 4, 6 and 9. More on the design: method as in SelleckChem library description. As to conditions: read-out: IC50, CDK1, 2, 4, 6 and 9; cell-free assays; ref SelleckChem library description; cited from earlier work.
In the next data set the test system is p70S6K. More on the design: method as in SelleckChem library description. The conditions noted are these: ref SelleckChem library description; cited from earlier work.
In the next data set the test system is Akt2. Set-up: method as in SelleckChem library description. The conditions noted are these: ref SelleckChem library description; cited from earlier work.
For the next data set, the system named is PKA. More on the design: method as in SelleckChem library description. The conditions noted are these: ref SelleckChem library description; cited from earlier work.
The test system of a further data set is ROCKII. More on the design: method as in SelleckChem library description. The conditions noted are these: ref SelleckChem library description; cited from earlier work.
For another data set, the system named is Akt1. More on the design: method as in SelleckChem library description. As to conditions: ref SelleckChem library description; cited from earlier work.
A further data set has as its system ROCKI. Set-up: method as in SelleckChem library description. The conditions noted are these: ref SelleckChem library description; cited from earlier work.
The next data set concerns Akt3. More on the design: method as in SelleckChem library description. The conditions noted are these: ref SelleckChem library description; cited from earlier work.
The next data set concerns HER2. Set-up: method as in SelleckChem library description. As to conditions: ref SelleckChem library description; cited from earlier work.
For a further data set, the system named is PI3Kα. More on the design: method as in SelleckChem library description. As to conditions: ref SelleckChem library description; cited from earlier work.
For a further data set, the system named is PI3Kγ. Set-up: method as in SelleckChem library description. The conditions noted are these: ref SelleckChem library description; cited from earlier work.
Another data set deals with PI3Kβ. Set-up: method as in SelleckChem library description. The conditions noted are these: ref SelleckChem library description; cited from earlier work.
For a further data set, the system named is Pim1. More on the design: method as in SelleckChem library description. As to conditions: ref SelleckChem library description; cited from earlier work.
The subject of the next data set is Pim2. More on the design: method as in SelleckChem library description. As to conditions: ref SelleckChem library description; cited from earlier work.
The subject of the next data set is Pim3. More on the design: method as in SelleckChem library description. The conditions noted are these: ref SelleckChem library description; cited from earlier work.
For the next data set, the target named is DNA synthesis. Set-up: method as in SelleckChem library description. The conditions noted are these: cell-free assay; ref SelleckChem library description; cited from earlier work.
Data set [1] has as its system Rac1 in MDA-MB-435 and MDA-MB-231 cells. More on the design: method as in SelleckChem library description. As to conditions: ref SelleckChem library description; cited from earlier work.
The nature of a further data set: Cytotoxicity in HepG2. As to conditions: human, HepG2 cells.
Data set [2] concerns the target opioid receptor-like1 (ORL1) receptor. Set-up: method as in SelleckChem library description. As to conditions: ref SelleckChem library description; cited from earlier work.
The test system of data set [3] is lab-cultured E. granulosus cysts (> 1 mm). Kind of data set: In vitro cyst viability assay. The data set is classed as cell-based, Echinococcus granulosus. As to conditions: Echinococcus granulosus, 72 h; 10 μM, day 3 post-treatment; read-out: inhibitory rate against the cysts.
Data set [4] has as its system lab-cultured E. granulosus microcysts (< 1 mm). Kind of data set: In vitro microcyst viability assay. In kind it is cell-based, Echinococcus granulosus. As to conditions: 10 μM, 4 days. On the procedure: The in vitro E. granulosus culture progression was divided into two stages: an early stage in which the PSC culture was established by digesting echinococcal cysts isolated from naturally infected sheep livers, followed by a late stage with differentiation into cysts. CSCs were cultured from PSCs according to our previously described method. Briefly, the PSCs were incubated at 37 °C in glass culture vessels in RPMI 1640 medium (Invitrogen, San Diego, CA) containing 20% (v/v) FCS (Invitrogen), 0.45% (w/v) yeast extract, 0.4% (w/v) glucose, 100 IU/mL penicillin, and 100 μg/mL streptomycin placed on a solid-phase base prepared by heating newborn calf serum at 75 °C for 45 min (Smyth, 1990). Approximately 100 PSCs/mL were cultured, and the liquid medium was replaced every 3 days. After 56 days of cultivation, about 10% of the PSCs had developed into cysts with a thin laminated layer. The external diameter of the cysts was 328.6 ± 48 μm, and they appeared to the naked eye as clear capsular cysts. The cysts were carefully aspirated from the culture flasks and separated from dead or undeveloped PSCs by Pasteur pipetting. CSCs included microcysts and cysts: the diameter of the microcysts ranged from 300 μm to 1 mm, and the diameters of the cysts were greater than 1 mm.
CSCs were cultured from PSCs utilizing the method described in a previous section. The in vitro cultured cysts (10 ± 5/well) or microcysts (10 ± 5/well) were seeded in 96-well plates before adding drugs. For the cyst/microcyst viability assay, cysts or microcysts were cultured in one well of a 96-well plate. After 1 day of culture, drugs were added to each well at a final concentration of 10 μM. For the cyst viability assay, the cyst survival rate was determined every 24 h after incubation with drugs, while for the microcyst viability assay, the survival rate of microcysts was determined at 4 days after drug incubation. The following equation was used for the death rate: death rate of CSCs (%) = 100 × (number of dead CSCs/number of total CSCs).

A further data set has as its target glucokinase (GK). More on the design: method as in SelleckChem library description. As to conditions: ref SelleckChem library description; read-out: EC50, glucokinase activation; cited from earlier work.
The target of the next data set is Bcl-2. Set-up: method as in SelleckChem library description. The conditions noted are these: cell-free assay; ref SelleckChem library description; cited from earlier work.
For a further data set, the system named is PDGFR. More on the design: method as in SelleckChem library description. The conditions noted are these: ref SelleckChem library description; cited from earlier work.
In the next data set the test system is EGFR. Set-up: method as in SelleckChem library description. The conditions noted are these: ref SelleckChem library description; cited from earlier work.
The test system of the next data set is EGFR(E746_A750). More on the design: method as in SelleckChem library description. As to conditions: ref SelleckChem library description; cited from earlier work.
Another data set has as its system EGFR(L858R). The conditions noted are these: ref SelleckChem library description; cited from earlier work.

Where a name gives a salt, the structure may show the parent alone.

For orientation: IC50 means the concentration at which inhibition is half-maximal. A word on the Ki: it is the equilibrium dissociation constant of an inhibitor or competing ligand from its target. Usually CC50 stands for the concentration at which the toxic effect on the cells reaches its halfway point. The low end stands for harm at low concentration, the high end for better tolerance by the cells. Broadly, the EC50 is the midpoint of the concentration-response curve.

For `O=C(NC1CCNCC1)c1[nH]ncc1NC(=O)c1c(Cl)cccc1Cl` [AT7519 HCl], the half-inhibitory concentration (IC50) with CDK1, 2, 4, 6 and 9 was […].
As to `NC[C@@](O)(c1ccc(Cl)cc1)c1ccc(-c2cn[nH]c2)cc1` [AT13148], the IC50 with p70S6K was 8 nM; with Akt2, 402 nM; in the data set on PKA, 3 nM; in the data set with ROCKII, 4 nM; with Akt1 it was 38 nM; in the data set on ROCKI it was 6 nM. In addition, the IC50 in the data set on Akt3 was 50 nM.
For the molecule `CN(C)C/C=C/C(=O)Nc1cc2c(Nc3ccc(F)c(Cl)c3)ncnc2cc1O[C@H]1CCOC1` [Afatinib (BIBW2992) Dimaleate], the IC50 in the data set with HER2 was 14 nM.
As for `COc1ccc(-c2ccc3ncc4c(c3c2)n(-c2ccc(N3CCNCC3)c(C(F)(F)F)c2)c(=O)n4C)cn1` [BGT226 (NVP-BGT226), BGT226], the IC50 in the data set on PI3Kα is 4 nM; in the data set on PI3Kγ, 38 nM; in the data set with PI3Kβ it was 63 nM.
Consider `CN1CCCN(C(=O)c2cccc(-c3ccc(/C=C4/C(=O)Nc5ccc(Cl)cc54)o3)c2)CC1` [CX-6258 HCl], for which the IC50 in the data set on Pim1 is […]; in the data set with Pim2, 25 nM; in the data set on Pim3, 16 nM.
Regarding `COc1cccc2c1C(=O)c1c(O)c3c(c(O)c1C2=O)C[C@@](O)(C(C)=O)C[C@@H]3O[C@H]1C[C@H](N)[C@H](O)[C@H](C)O1` [Daunorubicin HCl], the Ki on DNA synthesis was 20 nM.
`CCn1c2ccccc2c2cc(Nc3ccnc(NCCCN4CCOCC4)n3)ccc21` [EHop-016]: the IC50 in [1] is 1100 nM.
Turning to `CCc1ccc(OCc2ccccc2C(=O)Nc2ccc3nc(C)cc(N)c3c2)cc1` [JTC-801], in the data set “Cytotoxicity in HepG2”, it took 7430 nM to reach half-maximal cytotoxicity (CC50). Moreover, the IC50 in [2] was 94 nM. The inhibition at 10 µM in data set [3] came to 100%. Moreover, the “effect on microcyst viability” value in [4] is “did not exert a significant inhibitory effect”.
As for `O=C(Nc1ncc(SCCN2CCCC2)s1)[C@]1(c2ccc(S(=O)(=O)C3CC3)cc2)C[C@H]1C1CCCCC1` [LY2608204], the EC50 at glucokinase (GK) was 42 nM.
As to `COC1=CC(c2cc3ccccc3[nH]2)=N/C1=C\c1[nH]c(C)cc1C` [Obatoclax Mesylate (GX15-070), Obatoclax Mesylate], the Ki on Bcl-2 is 220 nM.
As for `CC(C)(C)c1cc(C=C(C#N)C#N)cc(C(C)(C)C)c1O` [Tyrphostin 9], the IC50 was 500 nM in the data set with PDGFR and 460000 nM in the data set on EGFR.
`C=CC(=O)Nc1cccc(Oc2nc(Nc3ccc(N4CCN(C)CC4)cc3)ncc2Cl)c1` [WZ3146]: the IC50 in the data set with EGFR(E746_A750) and with EGFR(L858R) was 2 nM each time.

Values taken from publication PMC11370232, “Repurposing of a library for high-content screening of inhibitors against Echinococcus granulosus” (Parasites & Vectors, 2024).
